For one data set, the system named is BMI-1 and αENaC mRNA. In words: mRNA expression of BMI-1 and αENaC on concomitant treatment with cyclohexamide. It counts as cell-based. The settings on record: RU-A15 100 nM, RU-A16 200 nM, concomitant with CHX. The procedure: Next, to test if Examples 3 and 4 are selective for BMI-1 RNA, cells were concomitantly treated with RU-A15/16 (100 nM, 200 nM, respectively) and cyclohexamide (CHX), a general translational inhibitor, and analyzed mRNA expression of BMI-1 and the CHX-specific target epithelial sodium channel (αENaC).

The test system of a further data set is Zebrafish embryo. In words: Zebrafish embryo toxicology assay. It counts as in vivo. An excerpt:
(§1) BMI-1 inhibitors were developed by the Molecular Design and Synthesis laboratory, Rutgers Translational Sciences at Rutgers University, NJ, USA. […] (Generic name is PTC-209) was characterized among a screen for post-transcriptional inhibitors of BMI-1. Zebrafish embryo toxicology assays were used to select RU-A compounds with no embryonic toxicity in vivo (a surrogate assay for toxic effects on normal stem cells). […] Cells were counted using Beckman Coulter Vi-CELL Cell Viability Analyzer, and cell viability was confirmed by CellTiter-Glo Luminescent Cell Viability Assay (Promega, Madison, Wis., USA) according to standard protocols and analyzed with a Victor 2 plate reader (Wallac, Turku, Finland).

The subject of another data set is BMI-1 5'UTR. Kind of data set: Luciferase plasmid containing the BMI-1 5'UTR with or without binding pocket. The format is cell-based. The protocol: Since translation initiation is dependent on RNA folding, the 3D folding of the BMI-1 5′UTR was examined. To identify sequences that fold into a target minimum and maximum free energy (MFE) secondary structure, inverse RNA folding of the BMI-1 5′UTR was performed using the mFold server. A highly probable, probability annotated group of secondary structures were identified, starting with the MFE, centroid energy structures and including fourteen other probabilities. […] In a luciferase plasmid containing the BMI-1 5′UTR, the sequences of the pocket region that contains the potential binding site was removed by cutting with compatible restriction enzymes and re-ligating the plasmid. The luciferase activity was examined with the luc plasmids or without the binding pocket upon treatment with the inhibitors. […] Thus, RU-A15/A16 engages with the BMI-1 UTR regulatory mechanisms.

A further data set relates to normal astrocytes. Kind of data set: Effects on normal astrocytes. It counts as cell-based.
Description: as §1

For data set [1], the system named is glioblastoma cancer stem cells. In words: Sphere selectivity ratio EC50(U87)/EC50(spheres). It counts as cell-based, human. Conditions: ratio greater than controls (DMSO and Temozolomide). The procedure:
The selectivity and potency in U87 cells were assessed vs primary GBM. Dose-response curves were generated in both spheres and monocultures and used to determine a sphere selectivity ratio (targeting Glioblastoma Initiating Cells), defined as EC50(U87)/EC50(spheres), for each compound.

The test system of a further data set is BMI-1 protein. Kind of data set: Inhibition of BMI-1 protein levels in U87 cells (Western blotting). The format is cell-based. Conditions: read-out: IC50, inhibition of BMI-1 protein levels, U87 glioblastoma cell lysate, 72 hours. The protocol:
U87 cells were treated with DMSO or different concentrations of compound B1 for 72 hours. Cells were lysed in Cell Lysis Buffer (Cell Signaling, #9803) supplemented with Protease Inhibitor Cocktail (Sigma, #P8340), sonicated briefly while on ice and spun down for 30 minutes at 4° C., after which the supernatant was collected. For each sample, 2 uL of lysate was mixed well into 198 uL de-ionized water. Next, 10 uL of this diluted sample was added to a well in a 96 well plate in quadruplets and mixed with Protein Assay Dye Reagent Concentrate (Bio-Rad, #500-0006) (which was diluted 1:5 with water). BSA standards of 25 ng, 50 ng, 100 ng, 200 ng and 250 ng were also used to the plate and mixed with the reagent. The plate was read in a plate reader at 600 nm and samples were calibrated to the standards to determine the concentration of protein. Using the NuPAGE system (Invitrogen), 25 ug of protein was mixed with NuPAGE LDS 4× Sample Buffer (#NP0007), NuPAGE 10× Reducing Agent (#NP0004) and water, mixed well and heated at 96° C. for 15 minutes to denature the protein. […] Protein signals were detected using ECL Western Blotting Substrate (Pierce, #32106) and filmed.
U87 cells were treated with DMSO or different concentrations of the inhibitors for 72 hours. […] The plate was read in a plate reader at 600 nm and samples were calibrated to the standards to determine the concentration of protein. […]
(In general: A western blot detects proteins with antibodies after separation by electrophoresis.)

Data set [2] relates to BMI-1 and ubiquitinated histone H2A in primary glioblastoma cells. In words: Modulation / dynamics of BMI-1 and downstream targets in GBM cells (Western blotting). It counts as cell-based, human. The procedure:
Different GBM cells were treated with DMSO or different concentrations of the B compounds for 72 hours. Cells were lysed in Cell Lysis Buffer (Cell Signaling, #9803) supplemented with Protease Inhibitor Cocktail (Sigma, #P8340), spun down for 30 minutes at 4° C., after which the supernatant was collected at every time point indicated. Western blotting analysis was performed on all samples as described above. BMI-1 loss started at 6-12 h, coinciding with an upper shift and hyper-phosphorylation of BMI-1 at 12-24 h and complete depletion at 72 h.
To study the compound dynamic activity against GBM spheres, GBMs were tested with exemplary compounds. Different GBM cells were treated with DMSO or different concentrations of the inhibitors for 72 hours. Cells were lysed in Cell Lysis Buffer (Cell Signaling, #9803) supplemented with Protease Inhibitor Cocktail (Sigma, #P8340), spun down for 30 minutes at 4° C., after which the supernatant was collected at every time point indicated. Western blotting analysis was performed on all samples as described above. […] BMI-1 loss started at 6-12 h, coinciding with an upper shift and hyper-phosphorylation of BMI-1 at 12-24 h and complete depletion at 72 h. […] This is expected since BMI-1 is known to suppress p21. BMI-1 inhibition could be reversed using phosphatase treatment, moreover, when proteasomal inhibitor is added to treated cells after 24 h, BMI-1 is locked in the phosphorylated state, therefore showing that the phosphorylation event precedes BMI-1 degradation. The phosphorylation was independent of p38 kinase activation, as when we added […], the p38 inhibitor to the cultured cells upon treatment with the BMI-1 inhibitor, the combined treatment could not reverse the effects of RU-A15 on BMI-1 inhibition.

Another data set concerns U87 glioblastoma cells. In words: Comparison of Example 3 and PTC-209 in U87 glioblastoma cells (cell viability). The format is cell-based.
Description: as §1

[3] abbreviates: primary glioblastoma cells, Western blotting.

Each structure is given as a SMILES string. Counter-ions that a name gives are not always drawn.

For orientation: IC50 means the concentration that inhibits the measured activity by half. For the compound `COc1ccc(Nc2nc(-c3c(C)nc4ccccn34)cs2)cc1` [Example 3, N-(4-methoxyphenyl)-4-(2-methylimidaz[1,2-a]pyridin-3-yl)thiazol-2-aminehydrobromide], in the data set on BMI-1 and αENaC mRNA, the “BMI-1 mRNA expression” value is on record as “did not inhibit” and the “αENaC mRNA expression” value is “did not inhibit”. Moreover, the “effects in embryo assays” value in the data set with Zebrafish embryo is recorded as “no significant effects”. For the same compound, the “normalized luc, BMI-1 5'UTR with intact binding pocket” value in the data set on BMI-1 5'UTR (intact minor groove potential binding pocket) is listed as “significantly reduced normalized luc”. For the same compound, in the data set with BMI-1 5'UTR (pocket sequences removed), the “normalized luc, binding pocket sequences removed” value is recorded as “not when the pocket sequences were removed”. In addition, the “effects on normal astrocytes” value in the data set on normal astrocytes is “no significant effects”. Further, in data set [1], the “selectivity for glioblastoma cancer stem cells (sphere selectivity ratio)” value was “high selectivity for glioblastoma cancer stem cells”. Besides, the IC50 in the data set on BMI-1 protein was 10 nM. In data set [2] (GBM#46 and #50), the “CDK inhibitor p21” value is reported as “induced upregulation of the CDK inhibitor p21”. In data set [2] (GBM#50, 72 h), the “lowest concentration giving dose-dependent loss of BMI-1 protein expression” value came to 25 nM. Moreover, in data set [2] (setting [3]), the BMI-1 protein levels entry was “inhibit BMI-1”, the “WT p53 levels” value is listed as “increase WT p53 levels” and the “ubiquitin H2A” value is listed as “inhibit ubiquitin H2A”. In the data set on U87 glioblastoma cells, the “potency relative to PTC-209” value was “one thousand-fold more potent than PTC-209”. In the data set with U87 glioblastoma cells (Homo sapiens, U-87 MG, 72 hours), the midpoint of inhibition, the IC50, lay at 10 nM.

For the origin of these results see US10875861B1, “Therapeutic compounds” (Rutgers, The State University of New Jersey, priority 2017, dated 2020).
